Measured values published in publication PMC8772704, “Quantification of Fosfomycin in Combination with Nine Antibiotics in Human Plasma and Cation-Adjusted Mueller-Hinton II Broth via LCMS” (Antibiotics, 2022).

Tests used:
[1] = 32-day stability of stock solutions stored at −80 °C; format: physicochemical; details: stock solution stored at -80 °C; peak area Day 32 vs Day 1
Description: Stability of stock solutions
All stock solutions of antibiotics and their corresponding stable-isotope variants were measured prior to cold storage at -80 °C and tested at 32 days later.
Stability was determined by comparing the peak area of each drug between its Day 1 and Day 32 measurement. Acceptable criteria for stability was met if the […]

[2] = Autosampler stability at 4 °C of extracted antibiotic-spiked plasma/CAMHB samples; details: for Mean accuracy (%), Table S8 / Mean accuracy (%), Table S10: CAMHB extracted samples; for Mean accuracy (%), Table S8 / Mean accuracy (%), Table S7: 7 h autosampler 4 °C; for Mean accuracy (%), Table S10 / Mean accuracy (%), Table S9: 15 h autosampler 4 °C; for Mean accuracy (%), Table S7 / Mean accuracy (%), Table S9: plasma extracted samples
Description: (§1) The stability of fosfomycin in combination with other antibiotics in plasma/CAMHB was evaluated under various operational conditions. Spiked plasma/CAMHB samples were evaluated at 7 h and 15 h in the autosampler at 4 °C. Long-term stability was evaluated up to 4 weeks of antibiotic-spiked plasma/CAMHB samples at LQC, MQC, and HQC concentrations stored at −30 °C and −80 °C.

[3] = Long-term storage stability of antibiotics in combination with fosfomycin spiked in plasma/CAMHB (−30 °C, −80 °C); format: physicochemical; details: for Mean accuracy (%), Table S15 / Mean accuracy (%), Table S17 / Mean accuracy (%), Table S16 / Mean accuracy (%), Table S18: CAMHB; for Mean accuracy (%), Table S15 / Mean accuracy (%), Table S17 / Mean accuracy (%), Table S16 / Mean accuracy (%), Table S18 / Mean accuracy (%), Table S11 / Mean accuracy (%), Table S13 / Mean accuracy (%), Table S12 / Mean accuracy (%), Table S14: combination with fosfomycin; for Mean accuracy (%), Table S15 / Mean accuracy (%), Table S11: 2 weeks at -30 °C; for Mean accuracy (%), Table S17 / Mean accuracy (%), Table S13: 2 weeks at -80 °C; for Mean accuracy (%), Table S16 / Mean accuracy (%), Table S12: 4 weeks at -30 °C; for Mean accuracy (%), Table S18 / Mean accuracy (%), Table S14: 4 weeks at -80 °C; for Stability verdict (within ±15% of nominal): CAMHB samples stored at −30 °C
Description: as §1

[4] = HQC: nominal mg/L CAZ 150, FEP 200, PIP 250, ATM 300, MEM 200, DOR 175, LVX 30, CEFT 250, TZB 87.5, TGC 20, AVI 30, FOF 1000
[5] = LQC: nominal 1 mg/L (levofloxacin, avibactam 0.5; fosfomycin 10)
[6] = MQC: nominal mg/L CAZ 75, FEP 100, PIP 150, ATM 150, MEM 100, DOR 87.5, LVX 15, CEFT 125, TZB 43.75, TGC 10, AVI 15, FOF 500

32 Day Stability (%) [1] [%]	Mean accuracy (%), Table S8 ([2]; HQC (nominal as E15)) [%]	Mean accuracy (%), Table S8 ([2]; LQC (nominal as E13)) [%]	Mean accuracy (%), Table S8 ([2]; MQC (nominal as E14)) [%]	Mean accuracy (%), Table S10 ([2]; HQC (nominal as E15)) [%]	Mean accuracy (%), Table S10 ([2]; LQC (nominal as E13)) [%]	Mean accuracy (%), Table S10 ([2]; MQC (nominal as E14)) [%]	Mean accuracy (%), Table S7 [2, 4] [%]	Mean accuracy (%), Table S7 [2, 5] [%]	Mean accuracy (%), Table S7 [2, 6] [%]	Mean accuracy (%), Table S15 ([3]; HQC (nominal as E15)) [%]	Mean accuracy (%), Table S15 ([3]; LQC (nominal as E13)) [%]	Mean accuracy (%), Table S15 ([3]; MQC (nominal as E14)) [%]	Mean accuracy (%), Table S17 ([3]; HQC (nominal as E15)) [%]	Mean accuracy (%), Table S17 ([3]; LQC (nominal as E13)) [%]	Mean accuracy (%), Table S17 ([3]; MQC (nominal as E14)) [%]	Mean accuracy (%), Table S16 ([3]; HQC (nominal as E15)) [%]	Mean accuracy (%), Table S16 ([3]; LQC (nominal as E13)) [%]	Mean accuracy (%), Table S16 ([3]; MQC (nominal as E14)) [%]	Mean accuracy (%), Table S18 ([3]; HQC (nominal as E15)) [%]	SMILES	further results
107.69	113.3	106.4	109.8	112.0	107.2	111.3	105.1	106.0	97.2	93.2	91.3	94.7	94.1	91.4	94.3	90.8	86.1	90.4	93.9	Cn1c(N)c(NC(=O)NCCN)c[n+]1CC1=C(C(=O)O)N2C(=O)[C@@H](NC(=O)/C(=N\OC(C)(C)C(=O)[O-])c3nsc(N)n3)[C@H]2SC1 [Ceftolozane, ceftolozane]	Mean accuracy (%), Table S9 ([2]; HQC (nominal as E15)): 101.0%; Mean accuracy (%), Table S9 ([2]; LQC (nominal as E13)): 97.5%; Mean accuracy (%), Table S9 ([2]; MQC (nominal as E14)): 90.0%; Mean accuracy (%), Table S18 ([3]; LQC (nominal as E13)): 87.5%; Mean accuracy (%), Table S18 ([3]; MQC (nominal as E14)): 96.2%; Mean accuracy (%), Table S11 ([3]; plasma, HQC (nominal as E15)): 86.5%; Mean accuracy (%), Table S11 ([3]; plasma, LQC (nominal as E13)): 86.9%; Mean accuracy (%), Table S11 ([3]; plasma, MQC (nominal as E14)): 86.4%; Mean accuracy (%), Table S13 ([3]; plasma, HQC (nominal as E15)): 86.3%; Mean accuracy (%), Table S13 ([3]; plasma, LQC (nominal as E13)): 91.1%; Mean accuracy (%), Table S13 ([3]; plasma, MQC (nominal as E14)): 87.7%; Mean accuracy (%), Table S12 ([3]; plasma, HQC (nominal as E15)): 99.3%; Mean accuracy (%), Table S12 ([3]; plasma, LQC (nominal as E13)): 99.0%; Mean accuracy (%), Table S12 ([3]; plasma, MQC (nominal as E14)): 98.6%; Mean accuracy (%), Table S14 ([3]; plasma, HQC (nominal as E15)): 100.8%; Mean accuracy (%), Table S14 ([3]; plasma, LQC (nominal as E13)): 89.3%; Mean accuracy (%), Table S14 ([3]; plasma, MQC (nominal as E14)): 98.0%
99.13	103.1	104.8	105.2	103.0	108.0	111.3	98.9	104.0	100.7	82.4	73.1	77.1	100.1	104.0	103.9	64.1	64.6	60.6	105.8	C[C@@H](O)[C@H]1C(=O)N2C(C(=O)O)=C(S[C@@H]3CN[C@H](CNS(N)(=O)=O)C3)[C@H](C)[C@H]12 [Doripenem, doripenem]	Stability verdict (within ±15% of nominal) ([3]; 2 weeks): instability; Stability verdict (within ±15% of nominal) ([3]; 4 weeks): instability; Mean accuracy (%), Table S18 ([3]; LQC (nominal as E13)): 99.1%; Mean accuracy (%), Table S18 ([3]; MQC (nominal as E14)): 104.7%; Mean accuracy (%), Table S11 ([3]; plasma, HQC (nominal as E15)): 98.0%; Mean accuracy (%), Table S11 ([3]; plasma, LQC (nominal as E13)): 91.0%; Mean accuracy (%), Table S11 ([3]; plasma, MQC (nominal as E14)): 97.0%; Mean accuracy (%), Table S13 ([3]; plasma, HQC (nominal as E15)): 98.3%; Mean accuracy (%), Table S13 ([3]; plasma, LQC (nominal as E13)): 100.6%; Mean accuracy (%), Table S13 ([3]; plasma, MQC (nominal as E14)): 96.9%; Mean accuracy (%), Table S12 ([3]; plasma, HQC (nominal as E15)): 102.4%; Mean accuracy (%), Table S12 ([3]; plasma, LQC (nominal as E13)): 100.0%; Mean accuracy (%), Table S12 ([3]; plasma, MQC (nominal as E14)): 103.1%; Mean accuracy (%), Table S14 ([3]; plasma, HQC (nominal as E15)): 106.3%; Mean accuracy (%), Table S14 ([3]; plasma, LQC (nominal as E13)): 99.2%; Mean accuracy (%), Table S14 ([3]; plasma, MQC (nominal as E14)): 106.9%
100.48	89.6	113.7	86.7	90.6	112.7	87.6	87.5	109.5	84.0	89.0	106.0	89.5	89.6	111.6	92.6	69.6	90.6	67.5	87.6	CCN1CCN(C(=O)N[C@@H](C(=O)N[C@@H]2C(=O)N3[C@@H]2SC(C)(C)[C@@H]3C(=O)O)c2ccccc2)C(=O)C1=O [Piperacillin, piperacillin]	Mean accuracy (%), Table S9 ([2]; HQC (nominal as E15)): 89.6%; Mean accuracy (%), Table S9 ([2]; LQC (nominal as E13)): 109.9%; Mean accuracy (%), Table S9 ([2]; MQC (nominal as E14)): 86.8%; Stability verdict (within ±15% of nominal) ([3]; 4 weeks): instability; Mean accuracy (%), Table S18 ([3]; LQC (nominal as E13)): 109.4%; Mean accuracy (%), Table S18 ([3]; MQC (nominal as E14)): 90.6%; Stability data ([3]; plasma, 2-week and 4-week intervals): 86–88%; Mean accuracy (%), Table S11 ([3]; plasma, HQC (nominal as E15)): 88.5%; Mean accuracy (%), Table S11 ([3]; plasma, LQC (nominal as E13)): 112.6%; Mean accuracy (%), Table S11 ([3]; plasma, MQC (nominal as E14)): 92.7%; Mean accuracy (%), Table S13 ([3]; plasma, HQC (nominal as E15)): 88.6%; Mean accuracy (%), Table S13 ([3]; plasma, LQC (nominal as E13)): 109.5%; Mean accuracy (%), Table S13 ([3]; plasma, MQC (nominal as E14)): 93.0%; Mean accuracy (%), Table S12 ([3]; plasma, LQC (nominal as E13)): 106.0%; Mean accuracy (%), Table S14 ([3]; plasma, LQC (nominal as E13)): 111.6%
102.57	103.5	100.6	103.1	103.2	101.8	100.2	110.0	106.7	112.7	87.2	98.8	87.3	102.3	98.9	106.1	91.2	87.0	100.6	91.0	CN(C)c1cc(NC(=O)CNC(C)(C)C)c(O)c2c1C[C@H]1C[C@H]3[C@H](N(C)C)C(O)=C(C(N)=O)C(=O)[C@@]3(O)C(O)=C1C2=O [Tigecycline, tigecycline]	Mean accuracy (%), Table S9 ([2]; HQC (nominal as E15)): 111.0%; Mean accuracy (%), Table S9 ([2]; LQC (nominal as E13)): 105.1%; Mean accuracy (%), Table S9 ([2]; MQC (nominal as E14)): 106.3%; Mean accuracy (%), Table S18 ([3]; LQC (nominal as E13)): 87.6%; Mean accuracy (%), Table S18 ([3]; MQC (nominal as E14)): 95.3%; Mean accuracy (%), Table S11 ([3]; plasma, HQC (nominal as E15)): 102.5%; Mean accuracy (%), Table S11 ([3]; plasma, LQC (nominal as E13)): 111.9%; Mean accuracy (%), Table S11 ([3]; plasma, MQC (nominal as E14)): 98.9%; Mean accuracy (%), Table S13 ([3]; plasma, HQC (nominal as E15)): 107.8%; Mean accuracy (%), Table S13 ([3]; plasma, LQC (nominal as E13)): 109.8%; Mean accuracy (%), Table S13 ([3]; plasma, MQC (nominal as E14)): 100.1%; Mean accuracy (%), Table S12 ([3]; plasma, HQC (nominal as E15)): 110.7%; Mean accuracy (%), Table S12 ([3]; plasma, LQC (nominal as E13)): 97.8%; Mean accuracy (%), Table S12 ([3]; plasma, MQC (nominal as E14)): 102.8%; Mean accuracy (%), Table S14 ([3]; plasma, HQC (nominal as E15)): 112.3%; Mean accuracy (%), Table S14 ([3]; plasma, LQC (nominal as E13)): 96.9%; Mean accuracy (%), Table S14 ([3]; plasma, MQC (nominal as E14)): 105.0%
